{"source": "paper PMC5589637", "about": "“New perspectives of cobalt tris(bipyridine) system: anti-cancer effect and its collateral sensitivity towards multidrug-resistant (MDR) cancers” (Oncotarget, 2017)", "key": {"[1]": {"tested_on": "LLC-1 (mouse lung cancer) cells", "experiment": "MTT cytotoxicity assay, LLC-1", "format": "cell-based", "conditions": "LLC-1, MTT, 72 h", "experimental": "(§1) All tested compounds were dissolved in DMSO at a final concentration of 50 mmol/L and stored at −20°C before use. Cytotoxicity was assessed by using the 3-(4,5-dimethylthiazol-2-yl)-2, 5-diphenyltetrazolium bromide (MTT) (5.0 mg/ml) assay as previously described. Briefly, 4×10^3 cells per well were seeded in 96-well plates before drug treatments. After overnight culture, the cells were then exposed to different concentrations of selected compounds ([…]) for 72 hours. Cells without drug treatment were used as control. Subsequently, MTT (10 μL) solution was added to each well and incubated at 37°C for 4 hours followed by the addition of 100 μL solubilization buffer (10%SDS in 0.01 mol/L HCl) and overnight incubation. A570 nm was then determined in each well on the next day. The percentage of cell viability was calculated using the following formula: Cell viability (%) = Atreated/Acontrol × 100. Data were obtained from three independent experiments."}, "[2]": {"tested_on": "MCF-7 taxol-sensitive cancer cells", "experiment": "MTT cytotoxicity, taxol-sensitive MCF-7", "format": "cell-based", "conditions": "72 h", "description": "(§2) All cells were obtained from the American Type Culture Collection (Rockville, MD, USA) unless otherwise specified. Immortalized wild-type and Atg7-deficient mouse embryonic fibroblasts (MEFs) were kindly provided by Professor Masaaki Komatsu (Juntendo University, School of Medicine, Japan). Taxol-resistant types of MCF-7, HCT-8, A549 cancers cells and cisplatin-resistant SGC7901 cancer cells were purchased from KeyGEN BioTECH, China. Cisplatin-sensitive or –resistant A2780, OV2008 and C13 cancer cells were kindly provided by Prof. Benjamin Tsang (Department of Obstetrics and Gynecology and Department of Cellular and Molecular Medicine, University of Ottawa, Canada). HCT116 p53^+/+ and p53^−/− isogenic human colon cancer cells were kindly provided by Professor Bert Vogelstein (Ludwig Center at Johns Hopkins, Howard Hughes Medical Institute, USA). All media were supplemented with 10% fetal bovine serum and antibiotics penicillin (50 U/ml) and streptomycin (50 μg/ml; Invitrogen, Paisley, Scotland, UK). All cell cultures were incubated at 37°C in a 5% humidified CO2 incubator.\nas §1"}, "[3]": {"tested_on": "Atg7^−/− deficient MEFs", "experiment": "MTT cytotoxicity, Atg7 deficient MEFs", "format": "cell-based, mouse", "conditions": "72 h", "description": "as §2, with “All media were supplemented with 10% fetal bovine serum and antibiotics penicillin (50 U/ml) and streptomycin (50 μg/ml; Invitrogen, Paisley, Scotland, UK). All cell cultures were incubated at 37°C in a 5% humidified CO2 incubator.” left out\nAll tested compounds were dissolved in DMSO at a final concentration of 50 mmol/L and stored at −20°C before use. Cytotoxicity was assessed by using the 3-(4,5-dimethylthiazol-2-yl)-2, 5-diphenyltetrazolium bromide (MTT) (5.0 mg/ml) assay as previously described. […] A570 nm was then determined in each well on the next day. The percentage of cell viability was calculated using the following formula: Cell viability (%) = Atreated/Acontrol × 100. […]"}, "[4]": {"tested_on": "OV2008 (cisplatin-sensitive) cells", "experiment": "MTT cytotoxicity, OV2008 (cisplatin-sensitive)", "format": "cell-based", "conditions": "72 h, read-out: IC50 value, cisplatin-sensitive cancer, OV2008", "description": "as §2, §1"}, "[5]": {"biological_target": "P-gp ATPase (Homo sapiens, UniProt P08183)", "sequence (P08183 whole entry)": "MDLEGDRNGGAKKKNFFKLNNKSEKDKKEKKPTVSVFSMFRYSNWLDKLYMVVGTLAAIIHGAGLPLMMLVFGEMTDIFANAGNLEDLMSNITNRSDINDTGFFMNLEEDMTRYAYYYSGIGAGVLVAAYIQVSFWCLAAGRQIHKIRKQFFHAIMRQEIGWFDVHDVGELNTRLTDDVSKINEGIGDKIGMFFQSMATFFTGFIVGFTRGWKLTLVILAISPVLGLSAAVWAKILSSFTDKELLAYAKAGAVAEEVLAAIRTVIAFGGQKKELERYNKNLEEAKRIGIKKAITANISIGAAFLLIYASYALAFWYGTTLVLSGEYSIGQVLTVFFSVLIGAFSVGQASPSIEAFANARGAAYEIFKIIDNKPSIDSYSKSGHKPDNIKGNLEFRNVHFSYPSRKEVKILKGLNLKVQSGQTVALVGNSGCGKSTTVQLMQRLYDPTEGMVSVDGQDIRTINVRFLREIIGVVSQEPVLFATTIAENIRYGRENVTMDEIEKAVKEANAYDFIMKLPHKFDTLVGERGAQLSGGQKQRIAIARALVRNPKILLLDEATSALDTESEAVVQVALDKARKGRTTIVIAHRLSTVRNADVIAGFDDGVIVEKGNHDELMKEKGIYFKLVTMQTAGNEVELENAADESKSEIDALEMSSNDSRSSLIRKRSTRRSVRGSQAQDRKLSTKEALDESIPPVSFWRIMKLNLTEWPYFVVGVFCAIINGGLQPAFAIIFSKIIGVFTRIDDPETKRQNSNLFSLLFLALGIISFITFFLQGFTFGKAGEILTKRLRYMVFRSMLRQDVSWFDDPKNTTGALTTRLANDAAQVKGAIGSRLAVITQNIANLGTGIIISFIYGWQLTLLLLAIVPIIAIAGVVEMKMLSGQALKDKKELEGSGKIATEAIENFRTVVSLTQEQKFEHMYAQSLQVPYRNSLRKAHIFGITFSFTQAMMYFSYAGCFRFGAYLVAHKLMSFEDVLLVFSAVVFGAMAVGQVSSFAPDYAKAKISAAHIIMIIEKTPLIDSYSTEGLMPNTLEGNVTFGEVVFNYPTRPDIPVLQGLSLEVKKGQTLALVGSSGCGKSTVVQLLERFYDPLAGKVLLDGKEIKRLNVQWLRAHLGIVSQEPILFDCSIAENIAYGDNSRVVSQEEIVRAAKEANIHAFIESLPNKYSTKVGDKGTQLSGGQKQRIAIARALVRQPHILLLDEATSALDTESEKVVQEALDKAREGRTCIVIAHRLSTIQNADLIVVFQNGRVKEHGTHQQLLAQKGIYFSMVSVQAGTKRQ", "conditions": "0–2 μM, verapamil (200 μM) stimulated, ATP, 1 h at 37°C", "experimental": "The luminescence of the sample reflects the ATP level in the sample, which is negatively correlated with the activity of P-gp ATPase and was recorded using the SpectraMax Paradigm Multi-Mode Microplate Reader (Molecular Devices). DMSO-treated activities are expressed as the percentage of basal activity."}, "[6]": {"tested_on": "MCF-7 taxol-resistant cancer cells", "experiment": "MTT cytotoxicity, taxol-resistant MCF-7", "format": "cell-based", "description": "as §2, §1"}, "[7]": {"tested_on": "HCT-8 taxol-resistant cancer cells", "experiment": "MTT cytotoxicity, taxol-resistant HCT-8", "format": "cell-based", "description": "as §2, §1"}, "[8]": {"tested_on": "normal human LO2 hepatocytes", "experiment": "MTT cytotoxicity assay, LO2", "format": "cell-based", "conditions": "72 h", "experimental": "as §1"}, "[9]": {"tested_on": "HeLa cancer cells", "experiment": "Flow cytometry cell-cycle analysis", "format": "cell-based", "conditions": "24 h, propidium iodide flow cytometry", "description": "Cobalt complex 2-treated cells were harvested and analysed by flow cytometry using propidium iodide staining (BD Biosciences, San Jose, CA, USA) according to the manufacturer instructions. Cell population in different phase of cell cycle were quantitatively counted by a flow cytometer (BD FACSAria III, San Jose, CA, USA)."}, "[10]": {"tested_on": "HeLa cancer cells", "experiment": "Endogenous autophagy detection (LC3-II puncta immunofluorescence)", "format": "cell-based", "conditions": "24 h", "experimental": "The detection of endogenous LC3 was conducted using immunofluorescence staining method as described below. In brief, cobalt complex 2-treated HeLa cancer cells on cover slips were fixed with 4% paraformaldehyde (Sigma) for 20 min at room temperature and then rinsed with PBS. Coverslips were immersed in methanol at room temperature for 2 min. After washing with PBS, the cells were then incubated with anti-LC3 (1:200) in TBST (100 mM Tris HCl, pH 7.5, 150 mM NaCl, 0.05% Tween 20 and 5% BSA) overnight at 4 °C. After washing with PBS, the cells were incubated with anti-mouse secondary antibody (TRITC) (1:200) in TBST containing 5% BSA at 37°C for 1 hour in the dark. The coverslips were then mounted with FluorSave™ mounting media (Calbiochem, San Diego, CA, USA) for fluorescence imaging and localization of LC3 autophagosomes were captured under the API Delta Vision Live-cell Imaging System (Applied Precision Inc.,GE Healthcare Company, Washington, USA). To quantify autophagy, guidelines were followed. The percentage of cells with autophagic induction was calculated by the number of the cells with increased formation of punctate LC3 fluorescence dots (≥ 10 dots/cell) over the total number of immunofluorescence-positive cells in the same field. A minimum of 1000 cells from randomly selected fields were scored."}, "[11]": {"tested_on": "HCT-8 taxol-sensitive cancer cells", "experiment": "MTT cytotoxicity, taxol-sensitive HCT-8", "format": "cell-based", "conditions": "72 h", "description": "as §2, §1"}}, "data": [{"compound": "Cc1ccnc(-c2cc(C)ccn2)c1.Cc1ccnc(-c2cc(C)ccn2)c1.Cc1ccnc(-c2cc(C)ccn2)c1.F[P-](F)(F)(F)(F)F.F[P-](F)(F)(F)(F)F.F[P-](F)(F)(F)(F)F.[Co+3]", "note": "[complex 2, [Co^III(4,4’-Me2-bpy)3](PF6)3]", "values": [{"measurement": "IC50", "setting": "[1]", "value": 3.39, "unit": "µM"}, {"measurement": "IC50", "setting": "[2]", "value": 4, "unit": "µM"}, {"measurement": "IC50", "setting": "[3]", "value": 14, "unit": "µM"}, {"measurement": "IC50", "setting": "[4]", "value": 7.62, "unit": "µM"}, {"measurement": "P-gp ATPase activity (change in luminescence)", "setting": "[5]", "value": "dose-dependently inhibited the ATPase activity of P-gp"}, {"measurement": "Resistant Factor, MCF-7", "setting": "[6]; IC50 of taxol-resistant cells over IC50 of taxol-sensitive cells, MCF-7", "value": 0.68}, {"measurement": "IC50", "setting": "[6]; MCF-7 taxol-resistant, MTT, 72 h", "value": 2.71, "unit": "µM"}, {"measurement": "IC50", "setting": "[7]; HCT-8 taxol-resistant, MTT, 72 h", "value": 1.22, "unit": "µM"}, {"measurement": "Resistant Factor, HCT-8", "setting": "[7]; IC50 of taxol-resistant cells over IC50 of taxol-sensitive cells, HCT-8", "value": 0.36}, {"measurement": "IC50", "setting": "[8]", "value": 13.2, "unit": "µM"}, {"measurement": "effect on cell cycle progression, high concentration", "setting": "[9]; high concentration", "value": "arrest HeLa cancer cell in S-phase"}, {"measurement": "effect on cell cycle progression, low concentration", "setting": "[9]; low concentration", "value": "negligible effect on cell cycle progression"}, {"measurement": "autophagy induction (percentage of cells with endogenous LC3-II puncta formation)", "setting": "[10]", "value": "induce autophagy in dose-dependent manner"}, {"measurement": "IC50", "setting": "[11]", "value": 3.39, "unit": "µM"}]}]}
